# Values joined by “and” are separate entries in the source; they are usually repeats but may differ in a detail not shown here. Equal values may be shown once.
# Molecular target: T1, PPARγ (Homo sapiens, UniProt P37231)
# T1 construct: expressed in transfected cells; host or cells: HEK 293 T cells
# T1 sequence (P37231 1-505): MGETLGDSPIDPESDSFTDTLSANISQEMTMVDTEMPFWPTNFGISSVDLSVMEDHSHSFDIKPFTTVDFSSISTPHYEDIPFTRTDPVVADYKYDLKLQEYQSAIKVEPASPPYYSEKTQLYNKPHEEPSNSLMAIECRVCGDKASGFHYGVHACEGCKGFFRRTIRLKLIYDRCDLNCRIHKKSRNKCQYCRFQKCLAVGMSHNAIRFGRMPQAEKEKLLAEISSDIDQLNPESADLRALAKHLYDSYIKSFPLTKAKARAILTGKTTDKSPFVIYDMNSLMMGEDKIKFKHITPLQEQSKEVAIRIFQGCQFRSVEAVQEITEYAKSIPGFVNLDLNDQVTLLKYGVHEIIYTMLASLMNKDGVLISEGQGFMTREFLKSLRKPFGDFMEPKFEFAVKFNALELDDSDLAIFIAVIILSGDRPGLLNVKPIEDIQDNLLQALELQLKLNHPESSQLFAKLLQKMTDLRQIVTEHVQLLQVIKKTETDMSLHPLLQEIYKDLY
# Experiment: In vitro transcriptional activity of PPARγ gene (PPRE-luciferase reporter, HEK 293 T cells)
# Type: cell-based
# Conditions: HEK 293 T cells transfected with PPARγ expression and PPRE-luc plasmids, 21 hours; read-out: EC50 of PPARγ gene activation
row,SMILES,EC50
1,"CCc1ccc(CC/C=C/c2ccc3c(c2)OCCC3=O)cc1 [ELB001045, (E)-7-(4-(4-ethylphenyl)but-1-en-1-yl)chroman-4-one]",< 6.4 µM and 3.5 µM
2,"CCc1ccc(CC/C=C/c2ccc3c(c2)C(=O)CC3)nc1 [ELB001125, (E)-6-(4-(5-ethylpyridin-2-yl)but-1-en-1-yl)-2,3-dihydro-1H-inden-1-one]",< 6.4 µM
3,"CCc1ccc(CC/C=C/c2ccc3c(c2)C(=O)CC3)cc1 [ELB00824, (E)-6-(4-(4-ethylphenyl)but-1-en-1-yl)-2,3-dihydro-1H-inden-1-one]",< 6.4 µM and 4.7 µM

# Further lines, results first:
row,EC50,SMILES
1,< 6.4 µM and 4.8 µM,"CCc1ccc(OC/C=C/c2ccc3c(c2)C(=O)CC3)cc1 [ELB001115, (E)-6-(3-(4-ethylphenoxy)prop-1-en-1-yl)-2,3-dihydro-1H-inden-1-one]"
2,< 6.4 µM,"CCc1ccc(CC/C=C/c2ccc3c(c2)C(=O)COC3)cc1 [ELB001046, (E)-6-(4-(4-ethylphenyl)but-1-en-1-yl)isochroman-4-one]"
3,< 6.4 µM,"COc1ccc(CC/C=C/c2ccc3c(c2)C(=O)CC3)cc1 [ELB001116, (E)-6-(4-(4-methoxyphenyl)but-1-en-1-yl)-2,3-dihydro-1H-inden-1-one]"

# Test system: APP/PS1 transgenic mice
# Experiment: Alzheimer's disease model, eight-arm radial water maze and brain gene expression
# Type: in vivo, mouse
# Conditions: 10 mg/kg body weight/day, 30 days, RT-PCR
SMILES,expression level of Bcl-xl gene in cerebral cortex and hippocampus compared with disease control group,expression level of GluN2B gene in cerebral cortex and hippocampus compared with disease control group,expression level of Gng11 gene in cerebral cortex and hippocampus compared with disease control group,expression level of MnSOD gene in cerebral cortex and hippocampus compared with disease control group,expression level of Prx-2 gene in cerebral cortex and hippocampus compared with disease control group,expression level of klotho gene in cerebral cortex and hippocampus compared with disease control group [folds]
"CCc1ccc(CC/C=C/c2ccc3c(c2)C(=O)CC3)cc1 [ELB00824, (E)-6-(4-(4-ethylphenyl)but-1-en-1-yl)-2,3-dihydro-1H-inden-1-one]",doubled,doubled,tripled,tripled or quadrupled,tripled or quadrupled,9

# Same assay, conditions: 30 days in food, 10 mg/kg body weight/day (donepezil 3 mg/kg body weight/day), 5 on the first day
row,SMILES,number of errors in water maze on the third day
1,"CCc1ccc(CC/C=C/c2ccc3c(c2)OCCC3=O)cc1 [ELB001045, (E)-7-(4-(4-ethylphenyl)but-1-en-1-yl)chroman-4-one]",comparable to that of ELB00824
2,"CCc1ccc(CC/C=C/c2ccc3c(c2)C(=O)CC3)nc1 [ELB001125, (E)-6-(4-(5-ethylpyridin-2-yl)but-1-en-1-yl)-2,3-dihydro-1H-inden-1-one]",comparable to that of ELB00824
3,"CCc1ccc(CC/C=C/c2ccc3c(c2)C(=O)CC3)cc1 [ELB00824, (E)-6-(4-(4-ethylphenyl)but-1-en-1-yl)-2,3-dihydro-1H-inden-1-one]",~1
4,"CCc1ccc(OC/C=C/c2ccc3c(c2)C(=O)CC3)cc1 [ELB001115, (E)-6-(3-(4-ethylphenoxy)prop-1-en-1-yl)-2,3-dihydro-1H-inden-1-one]",comparable to that of ELB00824
5,"CCc1ccc(CC/C=C/c2ccc3c(c2)C(=O)COC3)cc1 [ELB001046, (E)-6-(4-(4-ethylphenyl)but-1-en-1-yl)isochroman-4-one]",comparable to that of ELB00824
6,"COc1ccc(CC/C=C/c2ccc3c(c2)C(=O)CC3)cc1 [ELB001116, (E)-6-(4-(4-methoxyphenyl)but-1-en-1-yl)-2,3-dihydro-1H-inden-1-one]",comparable to that of ELB00824

# Same assay, conditions: 30 days in food, 10 mg/kg body weight/day (donepezil 3 mg/kg body weight/day), eight-arm water maze
row,SMILES,"reduction in the number of errors (reference memory), third day compared with first day"
1,"CCc1ccc(CC/C=C/c2ccc3c(c2)C(=O)CC3)cc1 [ELB00824, (E)-6-(4-(4-ethylphenyl)but-1-en-1-yl)-2,3-dihydro-1H-inden-1-one]",significant

# Test system: db−/db− mice
# Experiment: Diabetic peripheral neuropathy model, Von Frey threshold, sciatic nerve ROS and MDA
# Type: in vivo, mouse
# Conditions: in food 10 mg/kg body weight/day (pregabalin 30 mg/kg body weight/day), compared with healthy control group
# Experimental: Male 5-6 week-old male db^−/db^− mice were used in the experiment, and their normoglycemic heterozygous littermates were used as controls. db^−/db^− is a commonly used type 2 diabetes animal model. The compounds was dissolved in DMSO and mixed into food pellets. The animals were given ad libitum access to the pellets, beginning from 8 to 9 weeks of age for 10 weeks. […] The method for detecting mice hindlimb hypersensitivity is performed using Von Frey filaments. […] The difference is significant with P<0.05. The increase of mitochondrial reactive oxygen species (ROS) in the sciatic nerve of mice, which in turn leads to the increase of intracellular malondialdehyde (MDA), is the etiology of this type of neuropathic pain. The efficacy of compound to treat the root cause of the disease was evaluated by measurement of the levels of MDA and mitochondrial ROS from the sciatic nerves.
SMILES,level of MDA in the sciatic nerve after 10 week treatment,level of mitochondrial ROS in the sciatic nerve after 10 week treatment
"CCc1ccc(CC/C=C/c2ccc3c(c2)OCCC3=O)cc1 [ELB001045, (E)-7-(4-(4-ethylphenyl)but-1-en-1-yl)chroman-4-one]",reduced,reduced
"CCc1ccc(CC/C=C/c2ccc3c(c2)C(=O)CC3)nc1 [ELB001125, (E)-6-(4-(5-ethylpyridin-2-yl)but-1-en-1-yl)-2,3-dihydro-1H-inden-1-one]",reduced,reduced
"CCc1ccc(CC/C=C/c2ccc3c(c2)C(=O)CC3)cc1 [ELB00824, (E)-6-(4-(4-ethylphenyl)but-1-en-1-yl)-2,3-dihydro-1H-inden-1-one]",no difference,no difference
"CCc1ccc(OC/C=C/c2ccc3c(c2)C(=O)CC3)cc1 [ELB001115, (E)-6-(3-(4-ethylphenoxy)prop-1-en-1-yl)-2,3-dihydro-1H-inden-1-one]",reduced,reduced
"CCc1ccc(CC/C=C/c2ccc3c(c2)C(=O)COC3)cc1 [ELB001046, (E)-6-(4-(4-ethylphenyl)but-1-en-1-yl)isochroman-4-one]",reduced,reduced
"COc1ccc(CC/C=C/c2ccc3c(c2)C(=O)CC3)cc1 [ELB001116, (E)-6-(4-(4-methoxyphenyl)but-1-en-1-yl)-2,3-dihydro-1H-inden-1-one]",no difference,no difference

# Same assay, conditions: in food 10 mg/kg body weight/day (pregabalin 30 mg/kg body weight/day), compared with normal control group
row,SMILES,mechanical pain threshold after 10 week treatment
1,"CCc1ccc(CC/C=C/c2ccc3c(c2)OCCC3=O)cc1 [ELB001045, (E)-7-(4-(4-ethylphenyl)but-1-en-1-yl)chroman-4-one]",significantly improved
2,"CCc1ccc(CC/C=C/c2ccc3c(c2)C(=O)CC3)nc1 [ELB001125, (E)-6-(4-(5-ethylpyridin-2-yl)but-1-en-1-yl)-2,3-dihydro-1H-inden-1-one]",significantly improved
3,"CCc1ccc(CC/C=C/c2ccc3c(c2)C(=O)CC3)cc1 [ELB00824, (E)-6-(4-(4-ethylphenyl)but-1-en-1-yl)-2,3-dihydro-1H-inden-1-one]",no difference
4,"CCc1ccc(OC/C=C/c2ccc3c(c2)C(=O)CC3)cc1 [ELB001115, (E)-6-(3-(4-ethylphenoxy)prop-1-en-1-yl)-2,3-dihydro-1H-inden-1-one]",significantly improved
5,"CCc1ccc(CC/C=C/c2ccc3c(c2)C(=O)COC3)cc1 [ELB001046, (E)-6-(4-(4-ethylphenyl)but-1-en-1-yl)isochroman-4-one]",significantly improved
6,"COc1ccc(CC/C=C/c2ccc3c(c2)C(=O)CC3)cc1 [ELB001116, (E)-6-(4-(4-methoxyphenyl)but-1-en-1-yl)-2,3-dihydro-1H-inden-1-one]",no difference

# Reference: patent US12545653B2, “Compound as PPAR agonist and application thereof” (USA Elixiria Biotech Inc., priority 2019, dated 2026)
